Source: US5089515A, “Lipid-peroxide formation inhibiting composition and novel compounds useful therefor” (priority 1986, dated 1992)
Entries after “also recorded” stand apart in the source; their conditions may differ.

Test system: central nervous system
Test: not given
Settings: IYAKUHIN KENKYU, 16, 1 (1985); cited from earlier work

Compound	depressing the central nervous system
CCN(CC)Cc1nccn1-c1ccc([N+](=O)[O-])cc1C(=O)c1ccccc1Cl [nizofenone]	defective in depressing the central nervous system

Test system: not given
Test: not given
Settings: cited from earlier work

Compound	solubility in water
COC1=C(OC)C(=O)C(CCCCCCCCCCO)=C(C)C1=O [Idebenon]	difficult to dissolve in water

Test system: cerebral ischemia model
Test: Cerebral protective activity in cerebral ischemia model
Type: in vivo, Wistar-strain male rat
Settings: 10 mg/kg into the duodenum, 30 minutes before 10 minutes ischemia; after release of ischemia
Protocol: (2) Cerebral protective activity in cerebral ischemia model
A Wistar-strain male rat weighing about 400 g was intramuscularly dosed with 0.6 mg of d-tubocurarine to immobilize. After inserting a trachea cannula, the head was fixed to the stereofaxic apparatus under artificial respiration. After incising the head skin and drilling the cranial bone, an electrode for recording electroencephalogram was placed on the surface of the left frontal cortex. After fixing the electrode to the cranial bone using dental cement, the rat was supported in the rear position. Then, a cannula for measuring the blood pressure was intubated to the left femoral artery and another cannula for additionally dosing d-tubocurarine was also intubated to the left femoral vein. The heart rate was measured by a cardiotachometer triggered by pulse pressure.
After reaching the stable state of several parameters including blood pressure, heart rate and electroencephalogram, the effective ingredient of the present invention which was previously prepared so as to form suspension of 1 ml/kg with 1% tragacanth gum solution was directly dosed into the duodenum in a dose of 10 mg/kg at 30 minutes before cerebral ischemia loading. The control group were dosed by the same volume of 1% tragacanth gum solution only.
The blood pressure, heart rate and electroencephalogram were monitored 10 to 20 minutes after drug dosing with the multipurpose polygraph (Model RM-85, made by Nihon Kohden Co., Ltd.), and operation was made according to the following procedure:
Firstly, the ribs were freed from the left costal cartilage and the chest was opened. Then, 30 minutes after drug dosing, the left common carotid artery, left vertebral artery and brachiocephalic artery were simultaneously plugged at the origin of the arteries with artery clips to stop the blood flow into the brain for 10 minutes.
The resumption of blood flow into the brain was conducted by simultaneously releasing the artery clips which were attached to said positions.
The cerebral protective activity of the drug against the disturbance after the release of cerebral ischemic load was investigated by the restoration of electroencephalogram.
During the experiment, the rectal temperature was maintained at 37-38° C. with a heating pad and continuously recorded on the recorder along with electroencephalogram, femoral blood pressure and heart rate.

Compound	restoration of electroencephalogram
O=C1CC(c2cccnc2)=NN1c1ccccc1 [Compound No. 1, 1-phenyl-3-(3-pyridyl)-2-pyrazolin-5-one]	the electroencephalogram appeared with restoration during the releasing
O=C1CC(Cc2cccnc2)=NN1c1ccccc1 [compound 24]	the electroencephalogram appeared with restoration during the releasing

Same assay, conditions: 10 mg/kg into the duodenum; after release of ischemia

Compound	function of the pulsation system
O=C1CC(c2cccnc2)=NN1c1ccccc1 [Compound No. 1, 1-phenyl-3-(3-pyridyl)-2-pyrazolin-5-one]	the function of the pulsation system was activated and normalized
O=C1CC(Cc2cccnc2)=NN1c1ccccc1 [compound 24]	the function of the pulsation system was activated and normalized

Same assay, conditions: 10 mg/kg into the duodenum; control died 75 minutes in average from blood reflow

Compound	survival period of time
O=C1CC(c2cccnc2)=NN1c1ccccc1 [Compound No. 1, 1-phenyl-3-(3-pyridyl)-2-pyrazolin-5-one]	the survival period of time of the animals of the group was clearly extended
O=C1CC(Cc2cccnc2)=NN1c1ccccc1 [compound 24]	the survival period of time of the animals of the group was clearly extended

Test system: lipid-peroxide formation in cerebral homogenate
Test: Lipid-peroxide formation inhibiting activity (TBA method, cerebral homogenate)
Type: biochemical, Wistar strain male rat
Settings: at 100 μM; rat cerebral homogenate, 30 minutes at 37° C
Protocol: (1) Lipid-peroxide formation inhibiting activity
(a) Preparation of cerebral homogenate
[…]. Then, cerebral irrigation was made with ice-cold physiological saline solution buffered with 50 mM phosphoric acid (pH value of 7.4, hereinafter referred to as "PBS"), and the whole brain was extracted. After removing the cerebellum, the cerebrum was weighed in the wet state, added with PBS of 9 times the weight and homogenized in ice-cold water with a teflon homogenizer. The cerebral homogenate was centrifuged at […] and 2200 rpm for 10 minutes, and 0.3 ml of the supernatant was partitioned into a ground stoppered light-resistant test tube to prepare a cerebral homogenate to be used for drug evaluation.
(b) Evaluation of test drug
The cerebral homogenate which was prepared by the above procedure (a) was added with 0.6 ml of PBS and 10 μl of ethanol solution which contained the test drug of […] in final concentration and incubated for 30 minutes in a water bath at 37° C. Then, the mixture was added with 200 μl of aqueous 35% solution of perchloric acid and centrifuged at 4° C and 2,600 rpm for 10 minutes to collect the supernatant.
In addition, 10 μl of ethanol (blank) was added instead of the test drug.
(c) Determination of lipid peroxide
The supernatant of 0.1 ml which was obtained in the above procedure (b) was added with 0.2 ml of aqueous 8.1% sodium dodecyl sulfate solution, 1.5 ml of 20% acetic acid buffer solution (pH of 3.5), 1.5 ml of 0.67% 2-thiobarbituric acid solution and 0.7 ml of distilled water and mixed. The mixed solution was heated for 60 minutes in boiling water bath, quenched with ice-cold water and added with 1.0 ml of distilled water and 5.0 ml of a mixture solution of pyridine and butanol (1:15). After 30 seconds of shaking, the mixed solution was centrifuged at 3,000 rpm for 10 minutes, and the supernatant was collected as the sample for lipid peroxide measurement.
In addition, 0.1 ml of Lipoperoxide-test reagent (Wako Pure Chemicals Co., Ltd.: 1,1,3,3-tetraethoxypropane is contained by […]) was added instead of the cerebral homogenate obtained in the above procedure (b) to prepare the reference solution
The amount of lipid peroxide was measured at a excitation wavelength of 515 nm and a fluorescence wavelength of 550 nm using a fluoro-spectrophotometer (Model 204, made by Hitachi, Ltd.) and calculated by the following formula: [formula] where, F=fluorescence intensity of the reference solution
f=fluorescence intensity of the test drug.
Then, the inhibition rates of the test drugs at each concentration were obtained for the TBA value of the blank under (b) above and IC value were calculated by the method of least square means.

Compound	Percent inhibition at 100 μM [%]
O=C(O)Cc1ccc(N2N=C(c3cccnc3)CC2=O)cc1 [Compound No. 9, 4-[3-(3-pyridyl)-5-oxo-2-pyrazolin-1-il] phenylacetic acid]	2.6
O=C(O)c1ccc(N2N=C(Cn3ccnc3)CC2=O)cc1 [Compound No. 49]	12.9
O=C(O)c1ccc(N2N=C(c3cccnc3)CC2=O)cc1 [compound 7]	1.9
O=C1CC(c2cccnc2)=NN1c1ccccn1 [compound 12]	43.2
CCC1C(=O)N(C2CCCCC2)N=C1c1cccnc1 (stereo not shown) [compound 21]	1.0
CCCC1C(=O)N(C2CCCCC2)N=C1c1cccnc1 (stereo not shown) [compound 23]	46.1
O=C(O)c1ccc(N2N=C(Cc3cccnc3)CC2=O)cc1 [compound 29]	17.6
O=C1CC(Cn2ccnc2)=NN1C1CCCCC1 [compound 40]	39.4
COc1ccc(N2N=C(Cn3ccnc3)CC2=O)cc1 [compound 43]	30.2
CCC1C(=O)N(c2ccccc2)N=C1Cn1ccnc1 (stereo not shown) [compound 52]	4.3
CC(C)C1C(=O)N(c2ccccc2)N=C1Cn1ccnc1 (stereo not shown) [compound 55]	27.3

Same assay, conditions: rat cerebral homogenate, incubated 30 minutes at 37° C

IC50 [µM]	Compound
13.6	CCOC(=O)Cc1ccc(N2N=C(c3cccnc3)CC2=O)cc1 [compound 8]
7.4	Cc1ccc(N2N=C(Cc3cccnc3)CC2=O)cc1 [compound 25]
23.6	COc1ccc(N2N=C(Cc3cccnc3)CC2=O)cc1 [compound 26]
12.2	CCOc1ccc(N2N=C(Cc3cccnc3)CC2=O)cc1 [compound 27]
4.1	O=C1CC(Cc2cccnc2)=NN1c1ccc(Cl)cc1 [compound 28]
24	O=C1CC(Cc2cccnc2)=NN1C1CCCCC1 [compound 30]
6.2	O=C1CC(Cc2cccnc2)=NN1c1ccccn1 [compound 31]
4.3	O=C1CC(c2ccco2)=NN1c1ccccc1 [compound 32]
4.1	Cc1ccc(N2N=C(c3ccco3)CC2=O)cc1 [compound 33]
6.5	COc1ccc(N2N=C(c3ccco3)CC2=O)cc1 [compound 34]
3.7	O=C1CC(c2ccco2)=NN1c1ccc(Cl)cc1 [compound 35]
8.3	O=C1CC(c2ccco2)=NN1C1CCCCC1 [compound 36]
15.4	O=C1CC(c2ccco2)=NN1c1ccccn1 [compound 37]
60.1	O=C1CC(Cn2ccnc2)=NN1c1ccccc1 [compound 38]
43	Cc1ccc(N2N=C(Cn3ccnc3)CC2=O)cc1 [compound 39]
60	Cc1cccc(N2N=C(Cn3ccnc3)CC2=O)c1 [compound 41]
24.4	CCc1ccc(N2N=C(Cn3ccnc3)CC2=O)cc1 [compound 42]
22.7	O=C1CC(Cn2ccnc2)=NN1c1ccc(Cl)cc1 [compound 44]
11	O=C1CC(Cn2ccnc2)=NN1c1ccc(Cl)c(Cl)c1 [compound 45]
60.5	CCOC(=O)Cc1ccc(N2N=C(Cn3ccnc3)CC2=O)cc1 [compound 46]
35.1	CCOC(=O)c1ccc(N2N=C(Cn3ccnc3)CC2=O)cc1 [compound 47]
51.3	O=C1CC(Cn2ccnc2)=NN1c1ccccn1 [compound 51]
38.2	CCC1C(=O)N(c2ccc(C)cc2)N=C1Cn1ccnc1 (stereo not shown) [compound 53]
37.8	CCC1C(=O)N(c2ccc(Cl)cc2)N=C1Cn1ccnc1 (stereo not shown) [compound 54]

Compound	IC50 [µM]
O=C1CC(c2cccnc2)=NN1c1ccccc1 [Compound No. 1, 1-phenyl-3-(3-pyridyl)-2-pyrazolin-5-one]	23.6
COc1ccc(N2N=C(c3cccnc3)CC2=O)cc1 [Compound No. 4]	37
CCOc1ccc(N2N=C(c3cccnc3)CC2=O)cc1 [Compound No. 5]	12.9
O=C1CC(c2cccnc2)=NN1c1ccc(O)cc1 [Compound No. 10, 1-(4-hydroxyphenyl)-3-(3-pyridyl)-2-pyrazolin-5-one]	102
Cc1ccc(N2N=C(c3cccnc3)CC2=O)cc1 [compound 2]	10.3
CCc1ccc(N2N=C(c3cccnc3)CC2=O)cc1 [compound 3]	4
O=C1CC(c2cccnc2)=NN1c1ccc(Cl)cc1 [compound 6]	4.3
O=C1CC(c2cccnc2)=NN1C1CCCCC1 [compound 11]	16.9
O=C1CC(c2cccnc2)=NN1c1nc2ccccc2s1 [compound 13]	84.1
CC1C(=O)N(c2ccccc2)N=C1c1cccnc1 (stereo not shown) [compound 14]	38.9
Cc1ccc(N2N=C(c3cccnc3)C(C)C2=O)cc1 (stereo not shown) [compound 15]	12.5
COc1ccc(N2N=C(c3cccnc3)C(C)C2=O)cc1 (stereo not shown) [compound 16]	46.3
CC1C(=O)N(c2ccc(Cl)cc2)N=C1c1cccnc1 (stereo not shown) [compound 17]	7.1
CC1C(=O)N(C2CCCCC2)N=C1c1cccnc1 (stereo not shown) [compound 18]	29.3
CC1C(=O)N(c2ccccn2)N=C1c1cccnc1 (stereo not shown) [compound 19]	12.3
CCC1C(=O)N(c2ccccc2)N=C1c1cccnc1 (stereo not shown) [compound 20]	29.4
CCCC1C(=O)N(c2ccccc2)N=C1c1cccnc1 (stereo not shown) [compound 22]	28.2
O=C1CC(Cc2cccnc2)=NN1c1ccccc1 [compound 24]	16.4

Test system: lipid peroxidation due to active oxygen species
Test: not given
Settings: prior art; cited from earlier work

Compound	inhibition of lipid peroxidation
COC1=C(OC)C(=O)C(CCCCCCCCCCO)=C(C)C1=O [Idebenon]	known to inhibit lipid peroxidation due to active oxygen species
CCN(CC)Cc1nccn1-c1ccc([N+](=O)[O-])cc1C(=O)c1ccccc1Cl [nizofenone]	known to inhibit lipid peroxidation due to active oxygen species
vitamin E	known to inhibit lipid peroxidation due to active oxygen species; also recorded: not sufficient to inhibiting lipid peroxidation
